Laboratory results taken from US20230312639A1, “GPER PROTEOLYTIC TARGETING CHIMERAS” (University of Iowa Research Foundation, priority 2020, published 2023).
“Also recorded” adds a separate entry of the source.

Tests used:
ERα = molecular target: T1, ERα (Homo sapiens, UniProt P03372); assay: Immunostaining of endogenous receptors in MCF-7 cells; settings: MCF-7, 1 hour
T1 sequence (P03372 1-595): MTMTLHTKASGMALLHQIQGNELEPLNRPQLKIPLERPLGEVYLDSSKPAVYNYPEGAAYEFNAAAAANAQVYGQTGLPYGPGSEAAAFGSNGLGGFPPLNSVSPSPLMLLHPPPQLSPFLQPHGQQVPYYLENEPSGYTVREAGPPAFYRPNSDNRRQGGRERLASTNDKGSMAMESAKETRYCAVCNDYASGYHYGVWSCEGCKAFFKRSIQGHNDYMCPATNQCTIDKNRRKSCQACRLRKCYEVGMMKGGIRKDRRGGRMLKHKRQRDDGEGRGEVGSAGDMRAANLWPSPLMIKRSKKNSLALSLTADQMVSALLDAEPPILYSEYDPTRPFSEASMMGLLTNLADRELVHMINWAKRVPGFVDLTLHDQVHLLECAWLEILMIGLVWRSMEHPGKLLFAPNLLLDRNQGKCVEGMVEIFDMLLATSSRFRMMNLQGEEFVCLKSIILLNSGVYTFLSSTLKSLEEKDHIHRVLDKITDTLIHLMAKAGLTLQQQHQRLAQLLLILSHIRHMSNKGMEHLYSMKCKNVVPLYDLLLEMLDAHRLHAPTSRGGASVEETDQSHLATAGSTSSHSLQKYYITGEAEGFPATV

native GPER = molecular target: T2, native GPER (Homo sapiens, UniProt Q99527); assay: Surface GPER immunostaining in human breast cancer cells (SKBR3, HCC-1806); assay type: cell-based
T2 construct: Similar results were obtained for native GPER in her2+ and TNBC breast cancer cells; endogenous in cells; host or cells: SKBR3 and HCC-1806 human breast cancer cells
Method: FIG. 4. PROTAC prototype Ul-EP001 reduces surface GPER. Similar results were obtained for native GPER in her2+ and TNBC breast cancer cells.
FIG. 18. […] Structure (A) and NMR spectrum (B) of UI-EP001. Human SKBR3 (Her2+) and HCC-1806 (TNBC) breast cancer cells were exposed to vehicle (untreated) or 100 µM of partial-PROTAC or E2p-PROTAC, Ul-EP001 for 16 hours. Cells were immunostained with GPER antibodies for 30 minutes and surface GPER was detected using goat anti-rabbit Alexa 594 IgG (red). Nuclei were countertained with DAPI (blue). (C).HA-GPER or HA-β1AR cells were treated with Ul-EP001 for the indicated times and immunoblotted with HA antibody (D) or immunostained for surface receptor (E). Total corrected red fluorescence (red) (TCRF) of treated and untreated HA-GPER or HA-β1AR cells was measured by subtracting cell background. […] Data not shown, no difference in surface GPER expression is measured in cells similarly treated with free 17β-E2.
To screen GPER-PROTACs, a GPER binding assay that measures a high-affinity (Kd= 2.7 nm), limited capacity, displaceable, single binding site specific for estrogens in plasma membranes of human SKBR3 breast cancer cells that express GPER but lack nuclear ER may be used (Thomas et al., 2005). GPER undergoes an uncommon mechanism of endocyosis that requires neither receptor phosphorylation, interaction with β--arrestin nor lysosomal activity. […]

[1] = molecular target: T3, HA-GPER (recombinant GPER) (Homo sapiens, UniProt Q99527); assay: Surface receptor immunostaining / HA immunoblot in HA-GPER cells (Example 1); assay type: cell-based; settings: 100 uM, 16 hr
T3 construct: expressed in transfected cells

HA-GPER = molecular target: T4, HA-GPER (Homo sapiens, UniProt Q99527); assay: Immunofluorescence with HA antibody, stably transfected HEK293 cells; assay type: cell-based; settings: 100 µM, 1 hour
T4 construct: expressed in transfected cells

SKBR3 cells = assay: Cell cycle analysis, propidium iodide, flow cytometry; assay type: cell-based, human; settings: SKBR3, 10 µM, 24 hours
Description: (§1) FIG. 30. E2-PROTACs promote estrogen receptor-dependent G2/M arrest. E2-PROTAC induced G2/M arrest in human breast cancer cell lines expressing membrane and/or intracellular estrogen receptors. […] Fixed cells were permeabilized and dyed with propidium iodide (PI). Cell cycle data were acquired on a flow cytometer and analyzed using Flow-Jo software. Data are expressed as mean ± SEM (n=3). The percentage of cells in each phase were plotted using Prism 8.0.
(§2) Cell cycle analysis. […] Following treatment, cells were harvested by trypsinization and washed twice in ice-cold PBS. Cells were then fixed in 70% ethanol at 4° C. for 30 minutes. Fixed cells were pelleted by centrifugation at 230 g for 5 minutes and the cell pellet was incubated in Krishan’s solution (3.8 mM sodium citrate (Fisher Scientific), 0.014 mM propidium iodide (AnaSpec, Fermont, Ca), 1% NP-40 (Sigma) and 2.0 mg/mL RNase A (Fisher Scientific)) for 30 minutes at 37° C. Cells were then centrifuged and washed in PBS prior to analysis using a FacScallibur flow cytometer. The data from flow cytometry were subjected to further analysis by CellQuest software version 3.3. DNA histograms generated indicate the fractions of the cell population in the sub-G1, G0-G1, S, or G2/M phase of the cell cycle.
(§3) To investigate the biological effect associated with decreased cell viability, cell cycle analysis was performed on the same four cell lines using propidium iodide staining and measured by flow cytometry 24 hours after treatment of cells with 10 µM E2-PROTAC or partial PROTAC (FIG. 30).

MDA-MB-231 cells = assay: as above; assay type: cell-based, human; settings: MDA-MB-231, 10 µM, 24 hours
Description: as §1, §2, §3

MCF-7 cells = assay: as above; assay type: cell-based, human; settings: MCF-7, 10 µM, 24 hours
Description: as §1, §2, §3

HCC1806 cells = assay: as above; assay type: cell-based, human; settings: HCC1806, 10 µM, 24 hours
Description: as §1, §2, §3

HA-CXCR4 = HA-CXCR4 (Homo sapiens, UniProt P61073); assay: Immunofluorescence with HA antibody, stably transfected HEK293 cells; assay type: cell-based; settings: 100 µM, 1 hour
GPER = GPER (Homo sapiens, UniProt Q99527); assay: Immunostaining of endogenous receptors in MCF-7 cells; settings: MCF-7, 1 hour

Cc1ncsc1-c1ccc(CNC(=O)C2CC(O)CN2C(=O)C(NC(=O)COCCOCCOCCOCC(=O)OC2CCC3C4CCc5cc(O)ccc5C4CCC23C)C(C)(C)C)cc1 (stereo not shown) [UI-EP001]
nuclear ERα expression (ERα): Clear site-specific reduction
expression of native GPER (native GPER): downmodulates the expression of native GPER
surface recombinant GPER / HA-GPER expression [1]: causes downmodulation of surface recombinant GPER; also recorded: Significant degradation of GPER was observed
degradation of HA-GPER (HA-GPER): specific degradation of HA-GPER was measured
cell cycle distribution (SKBR3 cells): dramatic increase in the G2/M peak
cell cycle distribution (MDA-MB-231 cells): This shift was not observed
cell cycle distribution (MCF-7 cells): dramatic increase in the G2/M peak
cell cycle distribution (HCC1806 cells): dramatic increase in the G2/M peak
off-target degradation of HA-CXCR4 (HA-CXCR4): without detectable off-target degradation
intracellular GPER expression (GPER): Clear site-specific reduction
